Like-named read-outs stand apart in the source and are kept apart here.
Legend:
Format in all cases: biochemical
PI3K-alpha = PI3K-alpha (Homo sapiens, UniProt P42336); experiment: PI3K-alpha fluorescence polarization assay
PI3K-delta = PI3K-delta (Homo sapiens, UniProt O00329); experiment: PI3K-delta fluorescence polarization assay
PI3K-beta = PI3K-beta (Homo sapiens, UniProt P42338); experiment: PI3K-beta fluorescence polarization assay; conditions: read-out: PI3Kβ Avg. IC50
Procedure: PI3K-Alpha, PI3K-Beta, PI3K-Gamma, and PI3K-delta Fluorescence Polarization Assay Protocols
PI3-Kinase reactions were performed in 5 mM HEPES, pH 7, 2.5 mM MgCl2, and 25 μM ATP, with diC8-PI(4,5)P2 (Echelon, Salt Lake City Utah) as substrate. Nunc 384-well black polypropylene fluorescent plates were used for PI3K assays. Reactions were quenched by the addition of EDTA to a final concentration of 10 mM. Final reaction volumes were 10 μl. For evaluation of PI3K inhibitors, 5 ng of enzyme (PI3K-alpha, beta, gamma, or delta) and 2.5 μM of substrate was used per […] reaction volume, and inhibitor concentrations ranged from 100 μM to 20 μM; the final level of DMSO in reactions never exceeded 2%. Reactions were allowed to proceed for one hour at 25° C. After 1 hour, GST-tagged GRP1 (general receptor for phosphoinositides) PH domain fusion protein was added to a final concentration of 100 nM, and BODIPY-TMRI(1,3,4,5)P4 (Echelon) was also added to a final concentration of 5 nM. Final sample volumes were 25 μl with a final DMSO concentration of 0.8%. Assay Plates were read on Perkin-Elmer Envision plate readers with appropriate filters for Tamra [BODIPY-TMRI(1,3,4,5)P4]. Data obtained were used to calculate enzymatic activity and enzyme inhibition by inhibitor compounds.

human TOR = target: T1, human TOR (Homo sapiens, UniProt P42345); experiment: mTOR enzyme assay (DELFIA, His6-S6K substrate); conditions: read-out: mTOR Kinase Avg. IC50
T1 construct: FLAG

PI3K-gamma = PI3K-gamma (Homo sapiens, UniProt P48736); experiment: PI3K-gamma fluorescence polarization assay; conditions: PI3Kγ Avg. IC50
PI3K-gamma, sequence (P48736 whole entry, species assumed, the tested form may be a part): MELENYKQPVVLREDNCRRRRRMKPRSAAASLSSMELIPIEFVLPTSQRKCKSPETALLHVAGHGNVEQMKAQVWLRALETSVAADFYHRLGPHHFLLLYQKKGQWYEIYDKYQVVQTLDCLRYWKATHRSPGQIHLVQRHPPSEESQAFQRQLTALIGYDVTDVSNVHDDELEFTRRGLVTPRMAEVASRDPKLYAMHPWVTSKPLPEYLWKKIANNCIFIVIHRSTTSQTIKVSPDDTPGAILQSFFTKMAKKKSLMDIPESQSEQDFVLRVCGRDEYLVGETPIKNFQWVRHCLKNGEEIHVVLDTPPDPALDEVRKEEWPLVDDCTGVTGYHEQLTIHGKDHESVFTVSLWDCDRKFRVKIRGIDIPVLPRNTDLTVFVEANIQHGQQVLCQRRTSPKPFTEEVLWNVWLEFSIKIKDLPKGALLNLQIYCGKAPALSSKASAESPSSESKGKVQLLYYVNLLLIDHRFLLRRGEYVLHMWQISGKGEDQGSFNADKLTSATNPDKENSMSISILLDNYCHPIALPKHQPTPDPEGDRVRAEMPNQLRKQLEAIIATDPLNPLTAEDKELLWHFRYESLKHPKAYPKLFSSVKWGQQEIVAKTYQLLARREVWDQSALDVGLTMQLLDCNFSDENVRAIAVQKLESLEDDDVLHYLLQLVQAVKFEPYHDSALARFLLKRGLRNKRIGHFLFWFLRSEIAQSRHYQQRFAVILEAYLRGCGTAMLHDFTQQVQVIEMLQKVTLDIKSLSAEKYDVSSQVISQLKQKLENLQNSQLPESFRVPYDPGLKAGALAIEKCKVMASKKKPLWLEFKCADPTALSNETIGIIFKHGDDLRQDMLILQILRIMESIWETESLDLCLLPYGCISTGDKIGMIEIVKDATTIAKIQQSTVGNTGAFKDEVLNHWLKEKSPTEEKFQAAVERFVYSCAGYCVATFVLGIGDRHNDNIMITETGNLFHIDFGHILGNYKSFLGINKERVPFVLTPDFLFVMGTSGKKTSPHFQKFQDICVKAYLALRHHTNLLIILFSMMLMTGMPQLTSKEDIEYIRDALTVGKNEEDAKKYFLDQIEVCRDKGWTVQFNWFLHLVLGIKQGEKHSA
How it was run: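 Inhibition is derived from a polarization signal: after a 1 h, 25° C kinase step (25 μM ATP, 2.5 μM diC8-PIP2, pH 7), EDTA stops the reaction and the GRP1 PH domain/TMR-IP4 pair reports lipid product.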

PI3K-delta, sequence (O00329 whole entry, species assumed): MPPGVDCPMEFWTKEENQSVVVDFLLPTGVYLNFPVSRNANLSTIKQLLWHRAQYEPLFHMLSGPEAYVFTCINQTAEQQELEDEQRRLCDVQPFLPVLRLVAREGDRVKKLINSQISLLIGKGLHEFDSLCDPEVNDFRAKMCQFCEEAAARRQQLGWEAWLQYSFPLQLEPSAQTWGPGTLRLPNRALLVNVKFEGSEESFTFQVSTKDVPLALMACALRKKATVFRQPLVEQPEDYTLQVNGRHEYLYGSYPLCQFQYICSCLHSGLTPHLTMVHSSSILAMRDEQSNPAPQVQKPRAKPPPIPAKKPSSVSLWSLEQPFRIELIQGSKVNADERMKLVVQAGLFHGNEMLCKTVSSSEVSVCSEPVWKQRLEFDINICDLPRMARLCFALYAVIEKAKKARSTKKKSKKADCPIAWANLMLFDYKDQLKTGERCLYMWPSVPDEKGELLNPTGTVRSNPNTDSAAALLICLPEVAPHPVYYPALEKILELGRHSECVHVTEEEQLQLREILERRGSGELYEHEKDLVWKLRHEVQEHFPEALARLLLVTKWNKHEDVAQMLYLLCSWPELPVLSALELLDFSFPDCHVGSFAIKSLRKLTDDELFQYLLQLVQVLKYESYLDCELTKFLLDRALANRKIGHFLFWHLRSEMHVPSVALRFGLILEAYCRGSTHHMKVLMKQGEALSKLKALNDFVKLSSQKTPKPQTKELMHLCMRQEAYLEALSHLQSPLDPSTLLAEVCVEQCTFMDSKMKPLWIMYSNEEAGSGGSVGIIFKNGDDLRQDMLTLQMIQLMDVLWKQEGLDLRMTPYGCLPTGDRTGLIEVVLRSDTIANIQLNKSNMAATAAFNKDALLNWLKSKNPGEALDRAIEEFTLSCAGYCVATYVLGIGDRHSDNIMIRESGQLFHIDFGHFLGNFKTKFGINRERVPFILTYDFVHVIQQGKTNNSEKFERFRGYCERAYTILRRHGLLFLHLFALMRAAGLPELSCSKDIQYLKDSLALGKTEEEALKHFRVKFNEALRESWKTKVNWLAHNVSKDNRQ
PI3K-delta, sequence (P27986 whole entry partner, species assumed): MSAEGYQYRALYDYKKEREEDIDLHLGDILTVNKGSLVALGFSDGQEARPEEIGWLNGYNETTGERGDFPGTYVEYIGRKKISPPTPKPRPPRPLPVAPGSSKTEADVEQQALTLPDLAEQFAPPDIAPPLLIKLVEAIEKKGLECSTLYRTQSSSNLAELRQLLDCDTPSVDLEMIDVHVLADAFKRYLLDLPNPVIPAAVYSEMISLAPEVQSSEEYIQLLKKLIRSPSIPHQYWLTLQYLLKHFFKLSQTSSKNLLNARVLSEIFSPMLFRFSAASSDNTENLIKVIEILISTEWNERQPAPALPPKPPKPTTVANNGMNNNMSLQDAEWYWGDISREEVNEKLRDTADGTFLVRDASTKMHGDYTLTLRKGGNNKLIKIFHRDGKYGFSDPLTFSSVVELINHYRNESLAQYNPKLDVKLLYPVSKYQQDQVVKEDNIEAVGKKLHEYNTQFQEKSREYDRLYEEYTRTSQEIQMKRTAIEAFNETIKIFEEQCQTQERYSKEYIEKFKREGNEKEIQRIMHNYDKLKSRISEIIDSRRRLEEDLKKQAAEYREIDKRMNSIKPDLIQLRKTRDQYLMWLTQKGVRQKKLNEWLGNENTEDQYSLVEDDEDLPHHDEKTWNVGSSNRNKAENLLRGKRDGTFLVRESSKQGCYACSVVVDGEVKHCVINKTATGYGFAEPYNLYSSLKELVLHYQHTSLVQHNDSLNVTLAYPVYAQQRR
PI3K-alpha, sequence (P42336 whole entry, species assumed): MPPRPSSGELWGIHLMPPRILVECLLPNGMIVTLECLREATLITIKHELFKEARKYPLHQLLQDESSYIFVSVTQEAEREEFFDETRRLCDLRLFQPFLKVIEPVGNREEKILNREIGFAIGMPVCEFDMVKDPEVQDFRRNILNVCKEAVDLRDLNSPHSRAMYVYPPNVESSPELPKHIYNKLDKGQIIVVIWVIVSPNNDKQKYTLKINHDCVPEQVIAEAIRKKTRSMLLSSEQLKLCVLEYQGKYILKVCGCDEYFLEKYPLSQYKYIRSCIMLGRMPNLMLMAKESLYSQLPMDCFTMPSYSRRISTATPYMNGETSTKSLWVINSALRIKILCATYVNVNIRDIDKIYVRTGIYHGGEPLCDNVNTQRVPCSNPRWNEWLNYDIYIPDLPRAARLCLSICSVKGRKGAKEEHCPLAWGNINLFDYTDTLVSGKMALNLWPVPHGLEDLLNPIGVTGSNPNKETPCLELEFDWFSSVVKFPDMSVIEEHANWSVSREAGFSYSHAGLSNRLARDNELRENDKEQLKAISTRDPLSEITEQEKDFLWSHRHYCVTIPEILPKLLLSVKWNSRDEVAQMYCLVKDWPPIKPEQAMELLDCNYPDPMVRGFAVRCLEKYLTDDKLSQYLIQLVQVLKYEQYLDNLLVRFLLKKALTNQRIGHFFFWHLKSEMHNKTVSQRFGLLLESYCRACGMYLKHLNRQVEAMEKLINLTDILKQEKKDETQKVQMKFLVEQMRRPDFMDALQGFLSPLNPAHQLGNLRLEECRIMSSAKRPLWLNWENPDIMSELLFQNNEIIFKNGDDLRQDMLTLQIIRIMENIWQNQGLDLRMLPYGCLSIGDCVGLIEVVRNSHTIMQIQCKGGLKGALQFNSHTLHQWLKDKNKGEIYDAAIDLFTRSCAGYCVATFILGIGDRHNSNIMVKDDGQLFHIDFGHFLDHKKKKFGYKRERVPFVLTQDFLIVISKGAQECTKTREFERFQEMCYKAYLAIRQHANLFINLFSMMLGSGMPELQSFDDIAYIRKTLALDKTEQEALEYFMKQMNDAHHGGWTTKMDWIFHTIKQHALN
PI3K-alpha, sequence (P27986 whole entry partner, species assumed): as the sequence (P27986 whole entry partner, species assumed) above
PI3K-beta, sequence (P42338 whole entry, species assumed): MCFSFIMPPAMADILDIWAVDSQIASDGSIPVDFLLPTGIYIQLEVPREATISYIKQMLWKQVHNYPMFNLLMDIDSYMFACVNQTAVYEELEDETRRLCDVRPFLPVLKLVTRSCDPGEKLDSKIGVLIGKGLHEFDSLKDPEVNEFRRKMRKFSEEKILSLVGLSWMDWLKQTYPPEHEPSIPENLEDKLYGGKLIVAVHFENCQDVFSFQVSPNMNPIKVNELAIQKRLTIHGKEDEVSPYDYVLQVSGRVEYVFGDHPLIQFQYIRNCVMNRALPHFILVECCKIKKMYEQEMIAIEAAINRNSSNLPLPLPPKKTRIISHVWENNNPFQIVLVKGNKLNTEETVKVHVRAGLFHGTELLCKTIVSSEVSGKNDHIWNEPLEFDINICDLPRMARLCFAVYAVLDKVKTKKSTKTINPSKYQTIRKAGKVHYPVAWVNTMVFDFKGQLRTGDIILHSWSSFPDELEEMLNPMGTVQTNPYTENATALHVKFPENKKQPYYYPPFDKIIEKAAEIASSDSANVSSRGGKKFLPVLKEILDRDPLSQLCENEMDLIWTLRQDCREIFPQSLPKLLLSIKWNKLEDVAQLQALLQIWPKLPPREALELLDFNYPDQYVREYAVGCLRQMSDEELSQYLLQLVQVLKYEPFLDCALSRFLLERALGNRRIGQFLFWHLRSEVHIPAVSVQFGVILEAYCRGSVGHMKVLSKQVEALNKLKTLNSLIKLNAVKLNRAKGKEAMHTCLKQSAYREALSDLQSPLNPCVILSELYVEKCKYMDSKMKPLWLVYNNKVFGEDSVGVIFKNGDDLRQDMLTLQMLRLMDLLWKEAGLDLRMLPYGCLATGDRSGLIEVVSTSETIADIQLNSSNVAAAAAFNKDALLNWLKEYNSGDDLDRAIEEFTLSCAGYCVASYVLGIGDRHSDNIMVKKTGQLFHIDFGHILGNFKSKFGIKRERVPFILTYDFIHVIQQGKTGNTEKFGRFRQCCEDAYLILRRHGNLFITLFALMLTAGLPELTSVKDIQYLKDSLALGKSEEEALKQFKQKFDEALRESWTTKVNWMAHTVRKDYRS
PI3K-beta, sequence (P27986 whole entry partner, species assumed): as the sequence (P27986 whole entry partner, species assumed) above

| Structure (SMILES) | IC50 (PI3K-alpha; PI3Kα Avg. IC50) | IC50 (PI3K-delta) | IC50 (PI3K-beta) | IC50 (human TOR) | IC50 (PI3K-gamma) | IC50 (PI3K-alpha; read-out: PI3Kα Avg. IC50) | IC50 (PI3K-delta; read-out: PI3Kδ Avg. IC50) |
| --- | --- | --- | --- | --- | --- | --- | --- |
| COc1ccc2c(c1)c(C=C1Oc3cc(O)cc(O)c3C1=O)cn2C [Example 84, 4,6-dihydroxy-2-[(5-methoxy-1-methyl-1H-indol-3-yl)methylene]-1-benzofuran-3(2H)-one] | 106 nM | 110 nM | 547 nM | 65.2 nM | 586 nM |  |  |
| COc1ccc2c(c1)c(/C=C1\Oc3cc(O)cc(O)c3C1=O)c(C(F)(F)F)n2CC(=O)N(C)C [Example 333, 2-{3-[(Z)-(4,6-Dihydroxy-3-oxo-1-benzofuran-2(3H)-ylidene)methyl]-5-methoxy-2-(trifluoromethyl)-1H-indol-1-yl}-N,N-dimethylacetamide] |  |  | 203 nM | 53 nM | 159 nM | 66 nM | 51 nM |
| COc1ccc2c(c1)c(C=C1Oc3cc(O)cc(O)c3C1=O)cn2CCCCN(C)C [Example 116, 2-({1-[4-(dimethylamino)butyl]-5-methoxy-1H-indol-3-yl}methylene)-4,6-dihydroxy-1-benzofuran-3(2H)-one] |  |  | 119 nM | 1420 nM | 1340 nM | 37 nM | 5 nM |
| COc1ccc2[nH]c(CN(C)C)c(/C=C3\Oc4cc(O)cc(O)c4C3=O)c2c1 [Example 353, (2Z)-2-({2-[(Dimethylamino)methyl]-5-methoxy-1H-indol-3-yl}methylene)-4,6-dihydroxy-1-benzofuran-3(2H)-one] |  |  | 8 nM | 22 nM | 38 nM | 4 nM | 2 nM |
| COc1ccc2c(c1)c(/C=C1\Oc3cc(O)cc(O)c3C1=O)c(C(=O)N(C)C)n2CCN1CCN(C)CC1 [Example 316, 3-[(Z)-(4,6-Dihydroxy-3-oxo-1-benzofuran-2(3H)-ylidene)methyl]-5-methoxy-N,N-dimethyl-1-[2-(4-methylpiperazin-1-yl)ethyl]-1H-indole-2-carboxamide] |  |  | 25 nM | 14.5 nM | 278 nM | < 2.7 nM | 1.5 nM |
| COc1cc2c(C=C3Oc4cc(O)cc(O)c4C3=O)c(C)[nH]c2cc1C [Example 184, 4,6-dihydroxy-2-[(5-methoxy-2,6-dimethyl-1H-indol-3-yl)methylene]-1-benzofuran-3(2H)-one] |  |  | 155 nM | 190 nM | 544 nM | 102 nM | 193 nM |
| COc1ccc2[nH]c(-c3ccccc3)c(/C=C3\Oc4cccc(O)c4C3=O)c2c1 [Example 304, (2Z)-4-Hydroxy-2-[(5-methoxy-2-phenyl-1H-indol-3-yl)methylene]-1-benzofuran-3(2H)-one] |  |  | 128 nM | 62 nM | 65 nM | 54 nM | 17 nM |
| COc1ccc2c(c1)c(C=C1Oc3cc(O)cc(O)c3C1=O)c(C)n2CCCCl [Example 88, 2-{[1-(3-chloropropyl)-5-methoxy-2-methyl-1H-indol-3-yl]methylene}-4,6-dihydroxy-1-benzofuran-3(2H)-one] |  |  | 52 nM | < 21 nM | 73.7 nM | 9.7 nM | 3.5 nM |
| COc1ccc2c(c1)c(/C=C1\Oc3cc(O)cc(O)c3C1=O)c(C(=O)N(C)C)n2CCN1CCC(O)C1 (stereo not drawn) [Example 306, 3-[(Z)-(4,6-Dihydroxy-3-oxo-1-benzofuran-2(3H)-ylidene)methyl]-1-[2-(3-hydroxypyrrolidin-1-yl)ethyl]-5-methoxy-N,N-dimethyl-1H-indole-2-carboxamide] |  |  | 20.5 nM | 130 nM | 144 nM | 8.5 nM | 3 nM |
| COc1ccc2c(c1)c(C=C1Oc3cc(O)cc(O)c3C1=O)c(C)n2CCCCN(C)C [Example 101, 2-({1-[4-(dimethylamino)butyl]-5-methoxy-2-methyl-1H-indol-3-yl}methylene)-4,6-dihydroxy-1-benzofuran-3(2H)-one] |  |  | 6.5 nM | 46 nM | 377 nM | 5.3 nM | 1 nM |
| COc1ccc2c(c1)c(/C=C1\Oc3cc(O)cc(O)c3C1=O)c(-c1cnn(C)c1)n2CCN1CCN(C)CC1 [Example 341, (2Z)-4,6-Dihydroxy-2-({5-methoxy-1-[2-(4-methylpiperazin-1-yl)ethyl]-2-(1-methyl-1H-pyrazol-4-yl)-1H-indol-3-yl}methylene)-1-benzofuran-3(2H)-one] |  |  | 7.1 nM | 10.8 nM | 22.8 nM | 1.7 nM | 0.8 nM |
| COc1ccc2[nH]c(C)c(C=C3Oc4cc(O)cc(O)c4C3=O)c2c1 [Example 73, 4,6-dihydroxy-2-[(5-methoxy-2-methyl-1H-indol-3-yl)methylene]-1-benzofuran-3(2H)-one] |  |  | 8 nM | 2.7 nM | 25 nM | 2.7 nM | 5.8 nM |
| COc1ccc2c(c1)c(/C=C1\Oc3cc(O)cc(O)c3C1=O)c(C(=O)N(C)C)n2CCCN(C)C [Example 343, 3-[(Z)-(4,6-Dihydroxy-3-oxo-1-benzofuran-2(3H)-ylidene)methyl]-1-[3-(dimethylamino)propyl]-5-methoxy-N,N-dimethyl-1H-indole-2-carboxamide] |  |  | 71 nM | > 160 nM | 292 nM | 12 nM | 2.5 nM |
| COc1ccc2c(c1)c(C=C1Oc3cc(O)cc(O)c3C1=O)cn2CCN1CCN(CCO)CC1 [Example 111, 4,6-dihydroxy-2-[(1-{2-[4-(2-hydroxyethyl)piperazin-1-yl]ethyl}-5-methoxy-1H-indol-3-yl)methylene]-1-benzofuran-3(2H)-one] |  |  | 169 nM | 215 nM | 976 nM | 36.3 nM | 21.5 nM |
| COc1ccc2c(c1)c(C=C1Oc3cc(O)cc(O)c3C1=O)c(C)n2CCCCN1CCN(CCO)CC1 [Example 98, 4,6-dihydroxy-2-[(1-{4-[4-(2-hydroxyethyl)piperazin-1-yl]butyl}-5-methoxy-2-methyl-1H-indol-3-yl)methylene]-1-benzofuran-3(2H)-one] |  |  | 10.5 nM | 58.5 nM | 248 nM | 9.4 nM | 1 nM |
| COc1ccc2c(c1)c(/C=C1\Oc3cc(O)ccc3C1=O)c(C)n2CCCN1CCCCC1 [Example 357, (2Z)-6-Hydroxy-2-{[5-methoxy-2-methyl-1-(3-piperidin-1-ylpropyl)-1H-indol-3-yl]methylene}-1-benzofuran-3(2H)-one] |  |  | 98.5 nM | > 800 nM | 322 nM | 11 nM | < 1 nM |
| COc1ccc2c(c1)c(/C=C1\Oc3cc(O)cc(O)c3C1=O)c(C(F)(F)F)n2CCO [Example 332, (2Z)-4,6-Dihydroxy-2-{[1-(2-hydroxyethyl)-5-methoxy-2-(trifluoromethyl)-1H-indol-3-yl]methylene}-1-benzofuran-3(2H)-one] |  |  | 13.3 nM | < 21 nM | 22 nM | 5 nM | 7.8 nM |
| COc1ccc2c(c1)c(/C=C1\Oc3cc(O)ccc3C1=O)c(C)n2CCCN(C)C [Example 307, (2Z)-2-({1-[3-(Dimethylamino)propyl]-5-methoxy-2-methyl-1H-indol-3-yl}methylene)-6-hydroxy-1-benzofuran-3(2H)-one] |  |  | 72.5 nM | 3700 nM | 1820 nM | 18.5 nM | 2.5 nM |

Source: patent US20090311217A1, “3-SUBSTITUTED-1H-INDOLE COMPOUNDS, THEIR USE AS MTOR KINASE AND PI3 KINASE INHIBITORS, AND THEIR SYNTHESES” (priority 2008, published 2009)
